Bridge positions count the residues as written; N and C are the ends. Square brackets hold non-standard residues; d marks the D form. * marks the point of attachment. 5FAM = O=C1OC2(c3ccc(O)cc3Oc3cc(O)ccc32)c2ccc(C(=O)*)cc21; Cba = N[C@@H](CC1CCC1)C(=O)O; βAla = NCCC(=O)O
Assays:
[1] = target: MDM2 (Homo sapiens, UniProt Q00987); assay: Competitive Fluorescence Polarization Assay for MDM2; type: binding
Protocol: Competitive Fluorescence Polarization Assay for MDM2
The assay is performed according to the following general protocol: • 1. Dilute MDM2 (In-house, 41 kD) into FP buffer (High salt buffer-200 mM Nacl, 5 mM CHAPS, pH 7.5) to make 84 nM (2×) working stock solution. • 2. Add 20 μl of 84 nM (2×) of protein stock solution into each well of 96-well black HE microplate (Molecular Devices) • 3. Dilute 1 mM (in 100% DMSO) of FAM labeled linear peptide with DMSO to 100 μM (dilution 1:10). Then, dilute from 100 μM to 10 μM with water (dilution 1:10) and then dilute with FP buffer from 10 μM to 40 nM (dilution 1:250). This is the working solution which will be a 10 nM concentration in well (dilution 1:4). Keep the diluted FAM labeled peptide in the dark until use. • 4. Make unlabeled peptide dose plate with FP buffer starting with 1 μM (final) of peptide and making 5 fold serial dilutions for 6 points using following dilution scheme. • Dilute 10 mM (in 100% DMSO) with DMSO to 5 mM (dilution 1:2). Then, dilute from 5 mM to 500 μM with H2O (dilution 1:10) and then dilute with FP buffer from 500 μM to 20 μM (dilution 1:25). Making 5 fold serial dilutions from 4 μM (4×) for 6 points. • 5. Transfer 10 μl of serial diluted unlabeled peptides to each well which is filled with 20 μl of 84 nM of protein. • 6. Add 10 μl of […] of FAM labeled peptide into each well and incubate for 3 hr to read. […]

[2] = target: T1, MDMX (Homo sapiens, UniProt O15151); assay: Competitive Fluorescence Polarization Assay for MDMX; type: binding
T1 sequence (O15151 1-125): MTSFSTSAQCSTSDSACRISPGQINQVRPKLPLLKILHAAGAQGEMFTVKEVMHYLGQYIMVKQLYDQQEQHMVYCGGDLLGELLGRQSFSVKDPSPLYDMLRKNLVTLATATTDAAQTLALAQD
Protocol: Competitive Fluorescence Polarization Assay for MDMX
The assay is performed according to the following general protocol: • 1. Dilute MDMX (In-house, 40 kD) into FP buffer (High salt buffer-200 mM Nacl, 5 mM CHAPS, pH 7.5.) to make 300 nM (2×) working stock solution. 2. Add 20 μl of 300 nM (2×) of protein stock solution into each well of 96-well black HE microplate (Molecular Devices) • 3. Dilute 1 mM (in 100% DMSO) of FAM labeled linear peptide with DMSO to 100 μM (dilution 1:10). Then, dilute from 100 μM to 10 μM with water (dilution 1:10) and then dilute with FP buffer from 10 μM to 40 nM (dilution 1:250). This is the working solution which will be a 10 nM concentration in well (dilution 1:4). Keep the diluted FAM labeled peptide in the dark until use. • 4. Make unlabeled peptide dose plate with FP buffer starting with 5 μM (final) of peptide and making 5 fold serial dilutions for 6 points using following dilution scheme. • 5. Dilute 10 mM (in 100% DMSO) with DMSO to 5 mM (dilution 1:2). Then, dilute from 5 mM to 500 μM with H2O (dilution 1:10) and then dilute with FP buffer from 500 μM to 20 μM (dilution 1:25). Making 5 fold serial dilutions from 20 μM (4×) for 6 points. • 6. Transfer 10 μl of serial diluted unlabeled peptides to each well which is filled with 20 μl of 300 nM of protein. • 7. Add 10 μl of […] of FAM labeled peptide into each well and incubate for 3 hr to read. […]

[3] = system: SJSA-1 cells; assay: Cell Viability Assay (MTT), SJSA-1; type: cell-based; conditions: read-out: SJSA-1 EC50 (72 h)
Protocol: The assay is performed according to the following general protocol: • Cell Plating: Trypsinize, count and seed cells at the pre-determined densities in 96-well plates a day prior to assay.
Add 180 μL of the assay media per well. Control wells with no cells, receive 200 μl media.
Peptide dilution: all dilutions are made at room temperature and added to cells at room temperature. • Prepare 10 mM stocks of the peptides in DMSO. Serially dilute the stock using 1:3 dilution scheme to get 10, 3.3, 1.1, 0.33, 0.11, 0.03, 0.01 mM solutions using DMSO as diluents. […] Also prepare DMSO/sterile water (3% DMSO) mix for control wells. • Thus the working stocks concentration range μM will be 300, 100, 30, 10, 3, 1, 0.3 and 0 μM. […] H1-H3 will receive 20 ul of assay media. H4-H9 will receive 20 ul of 3% DMSO-water vehicle. […] Nutlin was diluted using the same dilution scheme as peptides.
(20 μl of 300 μM peptide+180 μl of cells in media=30 μM final concentration in 200 μl volume in wells). Mix gently a few times using pipette. […] Viability of SJSA-1, RKO, RKO-E6, HCT-116 cells is determined on day 3, MCF-7 cells on day 5 and SW-480 cells on day 6. At the end of designated incubation time, allow the plates to come to room temperature. Remove 80 μl of assay media from each well. Add 15 μl of thawed MTT reagent to each well. • Allow plate to incubate for 2 h at 37° C. in humidified 5% CO2 atmosphere and add 100 μl solubilization reagent as per manufacturer's protocol.

Sequence of MDM2 (Q00987 1-125): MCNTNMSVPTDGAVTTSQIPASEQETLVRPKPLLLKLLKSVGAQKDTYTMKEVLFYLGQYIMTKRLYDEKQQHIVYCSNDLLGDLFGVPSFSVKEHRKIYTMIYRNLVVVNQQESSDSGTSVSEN

Row | Ki [1] [µM] | Ki [2] [µM] | EC50 [3] [µM] | Substance
1 | < 0.01 | < 0.01 | – | 466 (LTFAEYWAQAASAA; not fully specified; stapled, Ac, NH2, Cba5Prp; N-term Ac; MOD_RES (4)..(4): Alpha-Me R-azide 1,4 triazole (6 carbon) alanine olefin amino acid connected by an all-carbon crosslinker comprising one double bond; misc_feature (4)..(11): Crosslink between residues; MOD_RES () [compound 466]
2 | – | – | > 30 | 452 (Ac-LTF[Alpha‑Me R‑azide 1,5 triazole (6 carbon) alanine]AYWAQL[Alpha‑Me alkyne 1,5 triazole (5 carbon) alanine]AAAAA[dA]-NH2; triazole 4-11; not fully specified; printed as Ac-LTF$5rn6AYWAQL$5a5AAAAAa-NH2) [compound 452]
3 | – | – | 5 to 15 | 461 (5FAM-[βAla]LTF[Alpha‑Me R‑azide 1,4 triazole (6 carbon) alanine]EYWAQ[Cba][Alpha‑Me alkyne 1,4 triazole (5 carbon) alanine]SAA-NH2; triazole 5-12; not fully specified) [compound 461]
4 | – | – | > 30 | 464 (5FAM-[βAla]LTA[Alpha‑Me R‑azide 1,5 triazole (6 carbon) alanine]EYWAQ[Cba][Alpha‑Me alkyne 1,5 triazole (5 carbon) alanine]SAA-NH2; triazole 5-12; not fully specified) [compound 464]
5 | – | – | 15 to 30 | 463 (5FAM-[βAla]LTF[Alpha‑Me R‑azide 1,5 triazole (6 carbon) alanine]EYWAQ[Cba][Alpha‑Me alkyne 1,5 triazole (5 carbon) alanine]SAA-NH2; triazole 5-12; not fully specified) [compound 463]

Reference: patent US10227380B2, “Triazole-crosslinked and thioether-crosslinked peptidomimetic macrocycles” (AILERON THERAPEUTICS, INC., priority 2012, dated 2019)
